# Reference: article PMC6328429, “Synthesis of a benzoxazinthione derivative of tanaproget and pharmacological evaluation for PET imaging of PR expression” (EJNMMI Radiopharmacy and Chemistry, 2019)
# “Also recorded” adds a separate entry of the source.
# What was measured:
# GR = target: T1, GR (Homo sapiens, UniProt P04150); assay: PatHunter express CHO-K1 GR nuclear translocation assay; type: cell-based; conditions: CHO-K1 cells; 6 h; at 0.5 μM; dexamethasone positive control
# T1 construct: host or cells: CHO-K1 (Chinese hamster ovary) cells
# T1 sequence (P04150 1-777): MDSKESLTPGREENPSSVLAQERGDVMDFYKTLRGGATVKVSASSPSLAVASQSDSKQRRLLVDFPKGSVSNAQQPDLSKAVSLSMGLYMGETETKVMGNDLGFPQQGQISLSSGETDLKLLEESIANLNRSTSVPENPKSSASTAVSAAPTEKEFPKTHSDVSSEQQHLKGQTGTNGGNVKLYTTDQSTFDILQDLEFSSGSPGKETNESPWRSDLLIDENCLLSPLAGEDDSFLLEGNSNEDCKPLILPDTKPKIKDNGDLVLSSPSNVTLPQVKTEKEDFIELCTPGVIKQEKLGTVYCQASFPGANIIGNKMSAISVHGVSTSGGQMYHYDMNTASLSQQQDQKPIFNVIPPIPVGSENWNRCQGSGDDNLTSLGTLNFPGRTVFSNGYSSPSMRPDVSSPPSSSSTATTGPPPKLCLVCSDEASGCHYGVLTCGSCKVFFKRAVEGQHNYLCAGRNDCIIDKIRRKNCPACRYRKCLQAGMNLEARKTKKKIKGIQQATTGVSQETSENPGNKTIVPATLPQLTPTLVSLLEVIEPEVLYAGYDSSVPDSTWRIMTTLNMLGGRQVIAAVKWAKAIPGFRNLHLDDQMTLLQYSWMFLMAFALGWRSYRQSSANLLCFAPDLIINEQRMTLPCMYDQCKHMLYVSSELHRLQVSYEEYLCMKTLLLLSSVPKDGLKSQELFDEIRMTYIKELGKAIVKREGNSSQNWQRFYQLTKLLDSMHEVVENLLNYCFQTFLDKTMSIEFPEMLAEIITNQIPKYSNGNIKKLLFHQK
# Description: Compound 2 was analysed for GR binding using the PatHunter® express CHO-K1 GR Nuclear Translocation assay (DiscoveRx™, Fremont, CA, USA). Reagents were thawed and equilibrated to room temperature prior to use. Dexamethasone standard (10 mM, 100% DMSO) was diluted and used to prepare 12 standards by 1:4 dilution. Test compound 2 was dissolved in 100% DMSO and diluted in serial 1:3 dilutions to a final concentration of DMSO (v/v) of 0.1%. CHO-K1 (Chinese hamster ovary) cells were seeded in a 96-well plate with CP reagent and incubated for 24 h at 37 °C, 5% CO2. Cells were then incubated with the Dexamethasone standard and compound 2 for 6 h at 37 °C, 5% CO2. Following incubation, signal was detected using the PathHunter® detection reagent provided in the kit and incubated in the dark for 1 h. The plate was read using a luminescence plate reader (Additional file 1: Figure S33).
# [1] = In vitro non-radioactive metabolite analysis and clearance in MLM; type: in vitro ADME, mouse
# Description: (§1) Microsomal incubations were performed using a Hamilton Microlab Star liquid handling workstation (Hamilton Robotics, Bonaduz, Switzerland). Test compound 2 (final concentration 1 or 10 μM, 1% DMSO) was pre-incubated at 37 °C for 10 min in MLM or HLM (final concentration 1 mg/ml prepared in 10 mM PBS). Reactions were initiated by the addition of NADPH (final concentration 1 mM). Aliquots were removed from each incubation and quenched in 3 volumes of ice-cold MeOH containing internal standard olomoucine (500 nM in MeOH) at − 1, 0, 5, 15, 30 and 60 min. Incubations were conducted in singlicate. […] Terminated incubations were centrifuged at 3700 rpm at 4 °C for 30 min and supernatant taken for analysis. Microsomal incubations were analysed by liquid chromatography-tandem mass spectrometry (LC-MS/MS). This consisted of a Dionex Ultimate 3000 UHPLC system coupled to a ThermoScientific Q Exactive Plus orbitrap mass spectrometer (Thermo Fisher Scientific Inc., Waltham, USA). Chromatographic separation was achieved using an Acquity UPLC HSS T3 column (1.8 μm, 100 × 2.1 mm) (Waters, Elstree, UK) at 50 °C and a binary mobile phase gradient at a flow rate of 0.4 ml/min. Initial LC conditions comprised 10% formic acid (0.1%) in water (A), 90% methanol (B). This was ramped to […] at 12 min. Sample analysis was by positive ion electrospray ionization. The capillary voltage was 3.5 kV. Full MS/dd-MS^2 (full MS scan followed by data dependent MS/MS) and Full MS/AIF (full MS scan followed by all ion fragmentation) workflows were used in combination. Full MS was performed at a resolution of 70,000, AGC target 1 e^6; dd-MS2 at a resolution of 17,5000, AGC target 1 e^5. LC-MS response (peak area of the analyte/peak area of internal standard) was fitted to a nonlinear single exponential model using software GraphPad Prism software (v6.07, GraphPad Software, Inc., La Jolla, USA). Elimination rate constant (k) was determined and intrinsic clearance, CLint, was calculated as CLint = (V.k)/mg protein where V is the incubation volume (μl) and mg protein is the mg microsomal protein in the incubation. Identification of metabolites in microsomal incubations and elucidation of their structures was undertaken with Compound Discoverer software (v2.0.0.303, Thermo Fisher Scientific Inc., Waltham, USA).
# [2] = In vitro non-radioactive metabolite analysis and clearance in HLM; type: in vitro ADME, human
# Description: as §1
smiles,measurement,setting,value
"CC1(C)OC(=S)Nc2ccc(-c3cccnc3F)cc21 [Compound 2, 6-(2-fluoropyridin-3-yl)-4,4-dimethyl-1H-benzo[d][1,3]oxazine-2(4H)-thione]",GR nuclear translocation response,GR,poor binder; also recorded: failed to elicit a response
same,Metabolite identification by mass spectrometry in MLM,"[1]; MLM incubation, LC-MS/MS",conversion of the thiocarbamate into oxocarbamate as the major metabolic pathway and highlighted oxidative defluorination
same,microsomal CLint,"[1]; mouse, mouse liver microsomes, MLM 1 mg/ml, NADPH 1 mM, 37 °C",1270 µL/min/mg
same,Metabolite identification by mass spectrometry in HLM,"[2]; HLM incubation, LC-MS/MS",conversion of the thiocarbamate into oxocarbamate as the major metabolic pathway and highlighted oxidative defluorination
same,"Clearance, fold slower in HLM than in MLM",[2]; HLM versus MLM,ca. 22 fold
same,microsomal CLint,"[2]; human, human liver microsomes, HLM 1 mg/ml, NADPH 1 mM, 37 °C",56 µL/min/mg
